Experiments:
[1] = COS/H2S release monitored by PNA formation (UV-Vis) in PBS containing CA; type: physicochemical; details: for half-life at 50 μM: PBS containing carbonic anhydrase (CA), pH 7.4, pH 7.4 PBS, ln(2)/kobs; for half-life at 50 μM / kobs (COS/H2S releasing kinetics): 37° C.; for kobs (COS/H2S releasing kinetics) / krel: pH 7.4 PBS; for kobs (COS/H2S releasing kinetics): CA 25 μg/mL, 50 μM; for krel: relative to γ-KetoTCM-1 at pH 7.4
Protocol: To investigate COS/H2S release from donor compound embodiments, γ-KetoTCM-1 (50 μM) was incubated in PBS (pH 7.4, 10 mM) containing CA (25 μg/mL) and H2S release was detected by monitoring para-nitroaniline (PNA) formation at 37° C. In particular, a γ-KetoTCM-1 stock solution (15.0 μL, 10.0 mM in DMSO) was added to 3.00 mL of PBS (pH 6.00, 7.40 or 8.00, 10.0 mM) containing CA (25.0 μg/mL) in a quartz UV cuvette. The absorbance (250-500 nm) was measured and recorded by using Agilent Cary 100 or Cary 60 UV-Vis spectrometers at 37° C. kobs was then obtained by plotting the absorbance ratio of PNA and γ-KetoTCM-1 versus time and t1/2 was calculated by dividing In(2) by kobs.
In this example, pH effects on COS/H2S release were investigated by incubating γ-KetoTCM-1 (50 μM) in PBS (pH 6.0-8.0) and monitoring with a UV-Vis spectrometer. […] In particular, a γ-KetoTCM-1 stock solution (15.0 μL, 10.0 mM in DMSO) was added to 3.00 mL of PBS (pH 6.00, 10.0 mM) containing CA (25.0 μg/mL) in a 3-mL UV cuvette. The absorbance (250-500 nm) was measured and recorded at 37° C. kobs was then obtained by plotting the absorbance ratio of PNA and γ-KetoTCM-1 vs time.

[2] = test system: macrophage RAW 264.7 cells; test: LPS-induced NO2− formation in macrophage RAW 264.7 cells (Griess); type: cell-based; details: 25 μM pretreatment 6 hours, LPS 1.0 μg/mL 18 hours
Protocol: In this example, the ability of embodiments of the disclosed donor compound to provide anti-inflammatory activity was evaluated. To investigate the potential protective effects of the developed donors, pretreated macrophage RAW 264.7 cells were pretreated with γ-KetoTCM-1 (25 μM) for 6 hours, followed by an 18-hour incubation with lipopolysaccharide (LPS, 1.0 μg/mL) to induce an inflammatory response. This response is accompanied by an increase in NO production, which was monitored by measuring nitrite (NO2−) accumulation. To determine whether the observed effects were due to COS/H2S release, control experiments with γ-KetoTCM-3, γ-KetoCM-1, and GYY4137 under the identical condition also were performed. GYY4137 was used as a positive control because it has shown anti-inflammatory effects previously, and because it generates a slow, continuous release of H2S.
In this example, macrophage RAW 264.7 cells were seeded in a 24-well plate (5×10^5 cells/well) containing 0.50 mL of DMEM and incubated at 37° C. under 5% CO2 for 24 hours. The confluent cells were washed with PBS and incubated with either γ-KetoTCM-1, γ-KetoTCM-3, γ-KetoCM-1, or GYY4137 (25.0 μM) at 37° C. for 6 hours. Compounds were then removed by washing cells with PBS and these pretreated cells were incubated in FBS-free DMEM containing LPS (1.00 μg/mL) for 18 hours. NO2− levels were measured by using a Griess Reagent Kit.

[3] = test system: HeLa cells; test: H2S delivery in HeLa cells imaged with SF7-AM fluorescent probe; type: cell-based; details: 100 μM, 2 hours
Protocol: In this example, it was evaluated whether γ-KetoTCM-based donors can be activated to deliver H2S in cellular environments. SF7-AM, a cell-trappable H2S fluorescent probe, was used to monitor H2S accumulation from γ-KetoTCM-1 in HeLa cells. In the absence of γ-KetoTCM-1, no fluorescent signal from SF7-AM was observed, indicating negligible endogenous H2S (FIG. 9, left column, including the top and bottom images).
HeLa cells were plated in poly-D-lysine coated plates (MatTek) containing 2.00 mL of DMEM and incubated at 37° C. under 5% CO2 for 24 hours. The confluent cells were washed with PBS and then co-incubated with SF7-AM (5.00 μM) and NucBlue nuclear dye (2 drops) for 30 minutes. The cells were then washed with PBS and incubated with either γ-KetoTCM-1 (100 μM) or γ-KetoCM-1 (100 μM) alone for 2 hours. Prior to imaging, the cells were washed with PBS and bathed in 2.00 mL of PBS. Cell imaging was performed on a Leica DMi8 fluorescent microscope.

SMILES	half-life at 50 μM [1] [h]	kobs (COS/H2S releasing kinetics) [1]	krel [1]	effect on LPS-induced NO2− production [2]	PNA released in PBS buffer (indicating COS/H2S release) ([1]; PBS pH 7.4, 37° C.)	SF7-AM fluorescence (H2S accumulation) [3]
CC(=O)C(C)COC(=S)Nc1ccc([N+](=O)[O-])cc1 (centres unmarked) [γ-KetoTCM-2]	25.9	0.82 ± 0.02 ×10^−5 s^−1	0.188			
C1COCCN1.COc1ccc(P(=S)(S)N2CCOCC2)cc1 (centres unmarked) [GYY4137, reference compound]				less pronounced effect		
CC(=O)C(C)(C)COC(=S)Nc1ccc([N+](=O)[O-])cc1 [γ-KetoTCM-3]				modest reduction	negligible	
CC(=O)CCOC(=O)Nc1ccc([N+](=O)[O-])cc1 [γ-KetoCM-1]	13.4 ± 0.3	1.44 ± 0.03 ×10^−5 s^−1	0.32	reduced NO2− levels, although to a lesser extent than γ-KetoTCM-1		failed to provide a SF7-AM signal
